In US20030157672A1, “Nitrilase from rhodococcus rhodochrous ncimb 11216” (priority 2000, published 2003):

Columns and labels:
[1] = system: nitrilase (nitA) from Rhodococcus rhodochrous NCIMB 11216 expressed in E. coli JM 109; assay: Conversion of nitriles by E. coli JM 109 (pDHE 17 and pDHE 18) cells; NH4 ions produced in supernatant, measured at 620 nm; type: biochemical; details: 30° C., 1 h, measurement at 620 nm; for amount of NH4 ions produced in the supernatant (Table 1, Experiment 1): E. coli JM 109 (pDHE 17 and pDHE 18) cells, 2 g DBM/l, 200 rpm; for amount of NH4 ions produced in the supernatant (Table 2, Experiment 2): Experiment 2, in analogy to Experiment 1, E. coli JM 109 cells
Protocol: Various nitriles were converted using the E. coli strains JM 109 (pDHE 17 and pDHE 18). The cells were for this purpose cultured in 250 ml LB/Amp medium+2 g/l rhamnose at 30° C. and 200 rpm for 9 hours (=h). The cells were harvested by-centrifugation (20 min, 4° C., 5000 rpm). The cells were then resuspended in 10 mM phosphate buffer, pH 7.2, so that the concentration of dry biomass (DBM) was 2 g DBM/l. 150 μl portions of the cell suspension were pipetted into each well of a microtiter plate. The plate was then centrifuged. The supernatant was aspirated off and the cell pellets were washed twice with Na2HPO4 [sic] (1.42 g/lin Finnagua, pH 7.2). After another centrifugation step, the cell pellets are [sic] resuspended in the respective substrate solution (150 μl). One substrate was added to each row of 12 in the microtiter plate. A row with substrate solution but without cells was used as control (blank). The microtiter plates were incubated in a shaking incubator at 30° C. and 200 rpm for 1 h. The cells were then spun down and the amount of NH4 [sic] ions produced in the supernatant was determined using a Biomek instrument. Measurement took place at 620 nm, comparing with a calibration plot produced using various NH4OH solutions. The substrates employed in Experiment 1 (see FIG. 3, Table 1) were the following substrates: benzonitrile (=1), 3-hydroxypropionitrile (=2), 2-methylglutaronitrile (=3), 4-chloro-3-hydroxybutyronitrile (=4), malononitrile (=5), crotononitrile (=6), geranonitrile (=7), octanedinitrile (=8), pivalonitrile (=9), aminocapronitrile (=10), 3,4-dihydroxybenzonitrile (=11), 3,5-dibromo-4-hydroxybenzonitrile (=12), 3-cyanopyridine (=13), 4-bromobenzyl cyanide (=14), 4-chlorobenzyl cyanide (=15), 2-phenylbutyronitrile (=16), 2-chlorobenzyl cyanide (=17), 2-pyridylacetonitrile (=18), 4-fluorobenzyl cyanide (=19), 4-methylbenzonitrile (=20), benzyl cyanide (=21). The substrates used in Experiment 2 (see FIG. 4, Table 2), which was carried out in analogy to Experiment 1, were as follows: […]

[2] = Conversion of benzonitrile into benzoic acid by nitrilase crude extract or purified nitrilase (HPLC); type: biochemical; details: purified using QIAexpress-Ni2+-NTA; enzyme concentration 50 μg/ml; initial benzonitrile 10 mM, 30° C., pH 7.5, 50 mM Tris/HCl, 0.1 mM DTT
Protocol: For heterologous expression on the laboratory scale, JM 109 (pDHE 17) from a 37° C. overnight culture was inoculated 1:200 in 50 ml dYT complete mediumn (Sambrook et al., 1989) with 0.2% L-rhamnose, and the culture was cultivated with induction in the shaking water bath at 30° C. for 8 h. The cells were then washed once in 50 mM Tris/HCl, pH 7.5, resuspended in the same buffer equivalent to an OD600 of 10, and disrupted by ultrasound treatment. The procedure with JM 109 (pDHE 18) was analogous. The protein pattern of the crude extracts obtained by ultrasound treatment and clarified by centrifugation was determined by SDS polyacrylamide gel electrophoresis, comparing with the noninduced control; with the induction conditions mentioned, the proportion of nitrilase in the protein was about 30% for each of JM 109 (pDHE 17) and JM 109 (pDHE 18).
The nitrilase with His6 motif from JM 109 (pDHE 18) was purified by washing the cells in 50 mM Tris/HCl, pH 7.5, resuspending equivalent to about 50 OD600/ml and preparing extracts with a French press (2×at 20000 psi). […]
In this case, one unit is equivalent to the production of 1 μmol of benzoic acid at an initial benzonitrile concentration of 10 mM, 30° C. and pH 7.5. […] The formation of benzoic acid was determined by HPLC (RP18 column, 250×4 [lacuna], mobile phase 47% methanol, 0.3% H3PO4).

Cc1ccc(C#N)cc1 [4-Methylbenzonitrile]
amount of NH4 ions produced in the supernatant (Table 1, Experiment 1) [1]: 0.4326

N#CCc1ccccc1Cl [2-Chlorobenzyl cyanide]
amount of NH4 ions produced in the supernatant (Table 1, Experiment 1) [1]: 0.4530

CCC(C#N)c1ccccc1 (stereo not shown) [2-Phenylbutyronitrile]
amount of NH4 ions produced in the supernatant (Table 1, Experiment 1) [1]: 0.1376

N#CCC(O)CCl (stereo not shown) [4-Chloro-3-hydroxybutyronitrile]
amount of NH4 ions produced in the supernatant (Table 1, Experiment 1) [1]: 0.1208

N#CCc1ccccc1 [Benzyl cyanide]
amount of NH4 ions produced in the supernatant (Table 1, Experiment 1) [1]: 0.2755

N#CCc1ccsc1 [3-Cyanomethylthiophene]
amount of NH4 ions produced in the supernatant (Table 2, Experiment 2) [1]: 0.9949

COC(CC#N)OC [3,3-Dimethoxypropionitrile]
amount of NH4 ions produced in the supernatant (Table 2, Experiment 2) [1]: 0.1466

CC(C)=CCC/C(C)=C/C#N [Geranonitrile]
amount of NH4 ions produced in the supernatant (Table 1, Experiment 1) [1]: 0.1517

N#C/C=C/C#N [Fumaronitrile]
amount of NH4 ions produced in the supernatant (Table 2, Experiment 2) [1]: 2.2510

N#CCc1ccc(Cl)cc1 [4-Chlorobenzyl cyanide]
amount of NH4 ions produced in the supernatant (Table 1, Experiment 1) [1]: 0.4830

N#CCc1ccc(Br)cc1 [4-Bromobenzyl cyanide]
amount of NH4 ions produced in the supernatant (Table 1, Experiment 1) [1]: 0.5213

N#CCCCC#N [Glutaronitrile]
amount of NH4 ions produced in the supernatant (Table 2, Experiment 2) [1]: 2.0809

N#CCC#N [Malononitrile]
amount of NH4 ions produced in the supernatant (Table 1, Experiment 1) [1]: 0.1208

N#Cc1ccccc1 [Benzonitrile]
amount of NH4 ions produced in the supernatant (Table 1, Experiment 1) [1]: 0.4051 | amount of NH4 ions produced in the supernatant (Table 2, Experiment 2) [1]: 1.9518

N#Cc1ccc(O)c(O)c1 [3,4-Dihydroxybenzonitrile]
amount of NH4 ions produced in the supernatant (Table 1, Experiment 1) [1]: 0.1569

N#CCCCCCN [Aminocapronitrile]
amount of NH4 ions produced in the supernatant (Table 1, Experiment 1) [1]: 0.1236

N#CCCO [3-Hydroxypropionitrile]
amount of NH4 ions produced in the supernatant (Table 1, Experiment 1) [1]: 0.1785

N#CC(O)CCc1ccccc1 (stereo not shown) [2-Hydroxy-4-phenylbutyronitrile]
amount of NH4 ions produced in the supernatant (Table 2, Experiment 2) [1]: 0.0000

CC=CC#N [Crotononitrile]
amount of NH4 ions produced in the supernatant (Table 1, Experiment 1) [1]: 0.4946

N#Cc1ccsc1 [3-Cyanothiophene]
amount of NH4 ions produced in the supernatant (Table 2, Experiment 2) [1]: 1.9038

N#CCC(CC#N)c1ccccc1 [3-Phenylglutaronitrile]
amount of NH4 ions produced in the supernatant (Table 2, Experiment 2) [1]: 0.0000

CC(O)C#N (stereo not shown) [2-Hydroxypropionitrile]
amount of NH4 ions produced in the supernatant (Table 2, Experiment 2) [1]: 0.0000

CC(C#N)c1ccccc1 (stereo not shown) [2-Phenylpropionitrile]
amount of NH4 ions produced in the supernatant (Table 2, Experiment 2) [1]: 0.0000

N#CCc1ccc(F)cc1 [4-Fluorobenzyl cyanide]
amount of NH4 ions produced in the supernatant (Table 1, Experiment 1) [1]: 0.2361

N#C/C=C/c1ccccc1 [trans-cinnamonitrile]
amount of NH4 ions produced in the supernatant (Table 2, Experiment 2) [1]: 2.2509

CC(C)(C)C#N [Pivalonitrile]
amount of NH4 ions produced in the supernatant (Table 1, Experiment 1) [1]: 0.1569

CC(C#N)CCC#N (stereo not shown) [2-Methylglutaronitrile]
amount of NH4 ions produced in the supernatant (Table 1, Experiment 1) [1]: 0.4758

N#CCCCCCCC#N [Octanedinitrile]
amount of NH4 ions produced in the supernatant (Table 1, Experiment 1) [1]: 0.4548

N#Cc1cccnc1 [3-Cyanopyridine]
amount of NH4 ions produced in the supernatant (Table 1, Experiment 1) [1]: 0.2393

CCC#N [Propionitrile]
amount of NH4 ions produced in the supernatant (Table 2, Experiment 2) [1]: 0.4135

N#Cc1cc(Br)c(O)c(Br)c1 [3,5-Dibromo-4-hydroxybenzonitrile]
amount of NH4 ions produced in the supernatant (Table 1, Experiment 1) [1]: 0.1624

N#CC(N)c1ccccc1 (stereo not shown) [2-Amino-2-phenylacetonitrile]
amount of NH4 ions produced in the supernatant (Table 2, Experiment 2) [1]: 0.0000

N#CCc1ccccn1 [2-Pyridylacetonitrile]
amount of NH4 ions produced in the supernatant (Table 1, Experiment 1) [1]: 0.1222

N#CC(O)c1ccccc1 (stereo not shown) [Mandelonitrile]
amount of NH4 ions produced in the supernatant (Table 2, Experiment 2) [1]: 0.0000

CCCCC#N [Valeronitrile]
amount of NH4 ions produced in the supernatant (Table 2, Experiment 2) [1]: 1.9218

B1: nitrilase with His6 motif: Recombinant nitA nitrilase of R. rhodochrous NCIMB 11216 with C-terminal His6 motif from E. coli JM 109 (pDHE 18), purified on Ni2+-NTA (protein, UniProt Q03217 2-366, looked up)
Aliphatic nitrilase: VEYTNTFKVAAVQAQPVWFDAAKTVDKTVSIIAEAARNGCELVAFPEVFIPGYPYHIWVDSPLAGMAKFAVRYHENSLTMDSPHVQRLLDAARDHNIAVVVGISERDGGSLYMTQLVIDADGQLVARRRKLKPTHVERSVYGEGNGSDISVYDMPFARLGALNCWEHFQTLTKYAMYSMHEQVHVASWPGMSLYQPEVPAFGVDAQLTATRMYALEGQTFVVCTTQVVTPEAHEFFCDNDEQRKLIGRGGGFARIIGPDGRDLATPLAEDEEGILYADIDLSAITLAKQAADPVGHYSRPDVLSLNFNQRHTTPVNTAISTIHATHTLVPQSGALDGVRELNGADEQRALPSTHSDETDRATASI
modifications: C-terminal His6 tag
notes: Recombinant nitA nitrilase of R. rhodochrous NCIMB 11216 with C-terminal His6 motif from E. coli JM 109 (pDHE 18), purified on Ni2+-NTA
conversion of 2-benzonitrile [sic] into benzoic acid (specific activity), purified nitrilase [2]: around 11 U/mg
